Laboratory results as given in patent US11453674B2, “Heterocyclic compound, preparation method and use thereof in medicine” (SUZHOU SINOVENT PHARMACEUTICALS CO., LTD., priority 2019, dated 2022).

Columns and labels:
hURAT1 = molecular target: T1, hURAT1 (Homo sapiens, UniProt Q96S37); assay: Inhibition of 14C-uric acid uptake by hURAT1 in HEK293-transfected cells; format: cell-based; conditions: HEK-293T cells stably expressing hURAT1, 14C-uric acid uptake, 5 min at 37° C.
T1 construct: expressed in transfected cells
T1 sequence (Q96S37 1-553): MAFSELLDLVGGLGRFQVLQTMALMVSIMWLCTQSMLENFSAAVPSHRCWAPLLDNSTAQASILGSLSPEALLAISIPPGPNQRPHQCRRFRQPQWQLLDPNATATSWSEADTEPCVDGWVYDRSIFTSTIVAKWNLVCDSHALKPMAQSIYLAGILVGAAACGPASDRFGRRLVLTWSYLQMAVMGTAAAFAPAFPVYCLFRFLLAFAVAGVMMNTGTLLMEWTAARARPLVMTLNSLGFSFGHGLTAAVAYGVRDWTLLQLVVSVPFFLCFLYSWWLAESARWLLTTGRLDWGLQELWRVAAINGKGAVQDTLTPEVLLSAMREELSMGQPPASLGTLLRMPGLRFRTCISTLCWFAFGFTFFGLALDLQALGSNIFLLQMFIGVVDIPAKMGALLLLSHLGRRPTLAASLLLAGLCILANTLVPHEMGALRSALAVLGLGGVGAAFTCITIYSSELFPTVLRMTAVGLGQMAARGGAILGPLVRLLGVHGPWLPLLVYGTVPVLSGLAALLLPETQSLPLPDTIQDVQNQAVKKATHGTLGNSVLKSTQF
Method: 1. Cell Culture and Inoculation
2) When the cells covered 80% of the culture medium, the culture medium was removed. The cells were washed with PBS once, followed by digestion with pancreatin-EDTA. After detachment, the cells were added with a culture medium, exfoliated by pipetting, and centrifuged for harvesting. The harvested cells were added with a culture medium and mixed well to give a cell suspension.
3) The cell density was adjusted to 3×10^5 cells/mL, transferred into a white-wall, clear-bottom, 96-well cell culture plate with 100 μL/well, and incubated for 12-24 h.
1) A 20 mM stock solution of the compound was prepared with DMSO. Then the stock solution was diluted to a starting concentration of 2 mM with DMSO.
2) The solution was serially 4-fold diluted with DMSO from […] to the 10th concentration on a 96-well plate serving as the 100× plate, and respective quality controls were prepared.
3) The solutions in corresponding wells were 10-fold diluted with Cl-free HBSS buffer on another 96-well plate serving as the 10× plate.
4) Buffer containing 0.1 μCi/mL ^14C-uric acid, at 45 μL/well, and a 10× diluted compound, at 5 μL/well, were added to a third 96-well plate serving as the 1× plate for later use. The concentration of DMSO was 1%.
3. Uptake of ^14C-Uric Acid in Cells Stably Expressing hURAT1
1) The uptake assay was performed after the cultivated cells in 96-well plates adhered.
2) The cells were washed once with pre-heated buffer at 200 μL/well.
3) After the wells were dried, corresponding compounds (50 μL/well) and 0.1 μCi/mL ^14C-uric acid were immediately added.
4) The plate with the compound was incubated in a 37° C. incubator for 5 min.
5) 150 μL of ice-cold buffer was added to each well to terminate the uptake. Each well was washed three times with buffer. The cells were carefully washed to avoid detachment.
6) 50 μL of lysis buffer was added to each well, prior to shaking at 900 rpm on an oscillator for 5 min.
7) 150 μL of scintillation solution (Microint 40) was added to each well before shaking at 900 rpm for 5 min.
8) Finally, the microwell plate was transferred to a MicroBeta Trilux (PerkinElmer Co. Ltd.) for detection.
The data were analyzed and the IC50 of the quality controls and all test compounds on the plates were calculated using XL-fit software.

[1] = test system: primary human hepatocytes; assay: Cytotoxicity assay on primary human hepatocytes (CellTiter-Glo, 48 h); format: cell-based; conditions: Hepatocyte, cell viability, 48 h incubation
Method: Example 26: Cytotoxicity Assay of Compounds on Primary Human Hepatocytes
Primary human hepatocytes were purchased from Biorecamation IVT. Co., Ltd. (lot no.: AKB/S1391); the components of in vitro culture media of primary human cell and suppliers are as follows:
1. Frozen primary human hepatocytes were thawed, then resuspended in a culture medium containing 10% FBS. The cells were transferred into a 96-well plate, at 8×10^4 cells/well, followed by incubating overnight in an incubator at 5% CO2 at 37° C.;
2. […] The test compounds and control drug were added to wells, at 100 μL/well, to form test compound wells or reference wells, and the culture medium containing 10% FBS was added to wells, at 100 μL/well, as negative control. The cells were incubated in an incubator in the presence of 5% CO2 at 37° C. for 48 h.
3. The primary human hepatocytes were washed with PBS (0.1 M, pH=7.4) twice, and were added with CellTiter-Glo reagent at 100 μL/well. Cell-free wells added with CellTiter-Glo reagent at 100 μL/well served as the blank control. The 96-well plate was shaken on a shaker for 5 min, and then left at room temperature for 10 min.
4. The chemiluminescence values were detected using Victor X4 (Perkin Elmer). The chemiluminescence values of the test compound wells were denoted as F(test compound), the chemiluminescence values of the blank control wells were denoted as F(blank), and the chemiluminescence values of the negative control wells were denoted as F(negative control). The cell viabilities at different concentrations were calculated according to the following formula. Each concentration was measured in triplicate to give the average and the standard deviation.
5. The half maximal inhibitory concentration (IC50) of the test compounds to the primary human hepatocytes were calculated using Prism Graph software.

Compound	IC50 (hURAT1) [nM]	IC50 [1] [µM]
CCc1oc2ccncc2c1C(=O)c1cc(Br)c(O)c(Br)c1 [Example 1, (3,5-dibromo-4-hydroxyphenyl)(2-ethylfuro[3,2-c]pyridin-3-yl) methanone]	< 50	
CCc1oc2ccccc2c1C(=O)c1cc(Br)c(O)c(Br)c1 [Benzbromarone, reference compound]		6.65
CCn1nc2ccc(F)cc2c1C(=O)c1cc(Br)c(O)c(Br)n1 [Example 8, (4,6-dibromo-5-hydroxypyridin-2-yl)(2-ethyl-5-fluoro-2H-indazol-3-yl)methanone]	50 to 200	
